Test systems include HCT-116 colon; HCT-15 colon; HOP-92 NSCLC; K-562 leukemia; KM12 colon; MDA-MB-231 breast; PC-3 prostate; SK-OV-3 ovarian; UACC-257 melanoma; MCF7 breast.
Common to all, as to assay: inhibition of tumour cell growth, NCI panel, 48 h

Data on 17 molecules can be found in PubChem BioAssay (NCI).

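The compound was tested at five concentrations on cells cultured in 96-well plates, with a 48-hour exposure period. GI50 is the concentration that inhibits growth by half. At the TGI there is no net growth.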

With `COC(=O)/C(=C/N1CCN(C(=O)c2ccco2)C1=S)C(C)=O`, the GI50 in the assay on HCT-116 colon is 7.42 µM; in the assay with HCT-15 colon it was 2.22 µM; with HOP-92 NSCLC, 20.8 µM; with K-562 leukemia it was 10.2 µM; with KM12 colon, 3.04 µM; with MDA-MB-231 breast, 9.01 µM. Besides, the figures for the GI50 with PC-3 prostate, in the assay with SK-OV-3 ovarian and in the assay on UACC-257 melanoma were 18.1 µM, 31.3 µM and 17.2 µM, respectively. Besides, the TGI with HCT-116 colon was 24.2 µM; in the assay on HCT-15 colon, 5.77 µM; in the assay with HOP-92 NSCLC, 75.4 µM; with K-562 leukemia it was above 100 µM; in the assay with KM12 colon, 9.78 µM; in the assay with MDA-MB-231 breast, 26.5 µM. For the same molecule, the results for the TGI in the assay on PC-3 prostate, in the assay on SK-OV-3 ovarian and with UACC-257 melanoma were above 100 µM, 78.2 µM and 39.3 µM, respectively.
As for `Clc1ccc2c(NCCCN3CCN(c4nc(-n5ccnc5)nc5ccccc45)CC3)ccnc2c1`, the GI50 with HCT-15 colon is 1.61 µM; in the assay with HOP-92 NSCLC, 14.3 µM; with K-562 leukemia, 2.1 µM; in the assay on SK-OV-3 ovarian, above 47.3 µM; in the assay with UACC-257 melanoma it was 2 µM. The TGI is 3.8 µM in the assay with HCT-15 colon; above 62.3 µM with HOP-92 NSCLC; 6.13 µM in the assay on K-562 leukemia; above 100 µM in the assay with PC-3 prostate; above 62.8 µM in the assay with SK-OV-3 ovarian; 3.81 µM in the assay with UACC-257 melanoma.
For `O=C(C#Cc1c[nH]c(=O)[nH]c1=O)c1ccccc1`, the TGI with HCT-116 colon amounted to 22 µM; with HCT-15 colon, 24.9 µM; in the assay with HOP-92 NSCLC, 27 µM; in the assay on K-562 leukemia it was 14.4 µM; in the assay on KM12 colon, 29 µM; with SK-OV-3 ovarian it was 62.9 µM. In addition, in the assay with UACC-257 melanoma, the TGI came out at 23.8 µM.
With `Cc1ccccc1NC(=O)C(=O)Cc1nc2ccccc2s1`, the TGI in the assay with HCT-116 colon, in the assay with HCT-15 colon, in the assay on HOP-92 NSCLC, in the assay with K-562 leukemia, in the assay on KM12 colon and in the assay on SK-OV-3 ovarian was above 100 µM in each case. Also, in the assay on UACC-257 melanoma, the TGI is above 100 µM.
For the molecule `O=C(O)/C(O)=C1/C=C(c2ccccc2)c2ccccc21`, the TGI in the assay with HCT-116 colon was 37.6 µM; in the assay with HCT-15 colon it was 50.6 µM; in the assay on HOP-92 NSCLC, 34.8 µM; in the assay on K-562 leukemia it was 73.5 µM; in the assay on KM12 colon it was 32.4 µM; with SK-OV-3 ovarian it was above 100 µM. In the assay on UACC-257 melanoma, this molecule showed a TGI of 48.1 µM.
For the molecule `Cc1ccc(NC(=O)SCCC(=O)O)cc1NC(=O)SCCC(=O)O`, the TGI in the assay on HCT-116 colon, in the assay with HCT-15 colon, in the assay on K-562 leukemia, in the assay with KM12 colon and with UACC-257 melanoma was above 100 µM each time.
For the molecule `CC(NC1CCC[C@H]1O)c1ccccc1` (mixture of isomers), the TGI in the assay with HCT-116 colon, with HCT-15 colon, in the assay on HOP-92 NSCLC, with K-562 leukemia, with KM12 colon and in the assay with SK-OV-3 ovarian was above 100 µM each time. The TGI in the assay on UACC-257 melanoma was above 100 µM.
Regarding `O=C(NCCNCCO)c1ccc2oc3cc4ccccc4c(=O)n3c2c1`, the GI50 in the assay with HCT-116 colon is 8.42 µM; in the assay on HOP-92 NSCLC, 7.96 µM; in the assay on K-562 leukemia, 14.9 µM; in the assay on KM12 colon, 10.5 µM; in the assay with MDA-MB-231 breast, 8.12 µM; with PC-3 prostate, 13.2 µM. Also, the GI50 in the assay with SK-OV-3 ovarian is 8.66 µM; in the assay on UACC-257 melanoma, 9.88 µM. The TGI in the assay with HCT-116 colon was 19.8 µM; in the assay on HOP-92 NSCLC, 29.6 µM; with K-562 leukemia, above 50 µM; with KM12 colon it was 40.4 µM; in the assay on MDA-MB-231 breast it was 19.9 µM; in the assay with PC-3 prostate it was above 50 µM. Further, the figures for the TGI with SK-OV-3 ovarian and in the assay with UACC-257 melanoma were 20.4 µM and 20.2 µM, respectively.
On to `C=C(CO)CC(O)c1ccccc1` (configuration not stated), for which the TGI in the assay with HCT-116 colon, with HCT-15 colon, in the assay with HOP-92 NSCLC, in the assay on K-562 leukemia, with KM12 colon and with SK-OV-3 ovarian was above 100 µM each time.
With `COC1OC(C)C(OC(=O)C(C)(C)C)C(C)(O)C1O` (configuration not stated), the TGI with HCT-116 colon, in the assay on HCT-15 colon, with HOP-92 NSCLC, with K-562 leukemia, with KM12 colon and with UACC-257 melanoma was above 100 µM throughout.
In the case of `C=C(C)C1CC[C@]2(C(=O)O)CCC3(C)[C@H](CCC4[C@@]5(C)CC[C@H](OC6OC(CO)C(O)C6OC6OC(C)C(O)C(O)C6O)[C@@](C)(CO)C5CC[C@]43C)C12` (some centres not stated), the TGI in the assay with HCT-116 colon, with HCT-15 colon, with K-562 leukemia and in the assay with KM12 colon was above 100 µM throughout.
Turning to `CC(=O)O[C@H]1CCC2[C@@H]3CCC4C(=O)c5oncc5C[C@]4(C)C3CC[C@@]21C` (some centres not stated), the TGI in the assay with HCT-15 colon, with HOP-92 NSCLC, in the assay on K-562 leukemia, with KM12 colon, in the assay with SK-OV-3 ovarian and in the assay on UACC-257 melanoma was above 100 µM throughout.
In the case of `CNC(=O)OCc1nc(S(C)=O)n(C)c1COC(=O)NC` (configuration not stated), the TGI with HCT-116 colon was above 100 µM; in the assay with HCT-15 colon, above 100 µM; with HOP-92 NSCLC, above 77.8 µM; with K-562 leukemia it was above 100 µM; with KM12 colon it was above 100 µM; with MCF7 breast it was above 100 µM. For the same molecule, the TGI with SK-OV-3 ovarian is above 73.3 µM; in the assay on UACC-257 melanoma, above 100 µM.
As to `CSc1s[s+]c(SC)c1[O-]`, the TGI is 36.8 µM with HCT-116 colon; above 100 µM with HCT-15 colon; above 100 µM in the assay with HOP-92 NSCLC; 25.2 µM with K-562 leukemia; above 100 µM in the assay with KM12 colon; above 100 µM in the assay on SK-OV-3 ovarian. The TGI in the assay on UACC-257 melanoma amounted to 50.2 µM.
With `COc1ccc(C(=O)C(C(=O)C(=O)Nc2nc3ccc(OC)cc3s2)c2ccc(OC)cc2)cc1` (configuration not stated), the TGI in the assay with HCT-15 colon, in the assay with HOP-92 NSCLC, with K-562 leukemia, with KM12 colon, in the assay on SK-OV-3 ovarian and with UACC-257 melanoma was above 100 µM each time.
For the molecule `CC1CC(=O)C(C(O)CC2CC(=O)N(c3ccccc3)C(=O)C2)C(C)C1` (configuration not stated), the TGI in the assay with HCT-116 colon, with HOP-92 NSCLC, in the assay on K-562 leukemia, in the assay with KM12 colon, in the assay on SK-OV-3 ovarian and in the assay on UACC-257 melanoma was above 100 µM in each case.
Turning to `CC(=O)Nc1ccc(/C=c2\sc3nnc(/C=C/c4ccccc4)n3c2=O)cc1`, the TGI in the assay on HCT-116 colon, in the assay with K-562 leukemia, with KM12 colon, in the assay with SK-OV-3 ovarian and in the assay on UACC-257 melanoma was above 50 µM throughout.
